According to patent publication US20240382601A1, “EMULSION FORMULATION HAVING HIGH FORMULATION STABILITY AND MANUFACTURING METHOD THEREOF” (AMOREPACIFIC CORPORATION, priority 2023, published 2024):

Columns and labels:
[1] = logP values of complex ingredients
Excerpt: (§1) Among the above ingredients, the logP values of dipropylene glycol, diethoxyethyl 5 succinate.

[2] = HLB values of surfactants; format: physicochemical
Excerpt: as §1

HLB [2] | Compound | logP [1]
– | CCOCCOC(=O)CCC(=O)OCCOCC [Diethoxyethyl succinate] | 0.25
– | CCCCCCCCCCCCOCCOCCO [Diethylene glycol lauryl ether] | 4
17 | Polysorbate 20 | –
15 | Polysorbate 60 | –
